# Source: PMC8708751, “Hit Identification of a Novel Quinazoline Sulfonamide as a Promising EphB3 Inhibitor: Design, Virtual Combinatorial Library, Synthesis, Biological Evaluation, and Docking Simulation Studies” (Pharmaceuticals, 2021)
# Like-named read-outs stand apart in the source and are kept apart here.
# What was measured:
# EGFR kinase = target: T1, EGFR kinase (Homo sapiens, UniProt P00533); test: EGFR kinase inhibition assay (HotSpot); format: biochemical
# T1 construct: purchased Reaction Biology Co. (Kinase HotSpot service)
# EphB1 = target: T2, EphB1 (Homo sapiens, UniProt P54762); test: Kinase panel assay, EphB1; format: biochemical
# T2 construct: purchased Reaction Biology Co. (Kinase HotSpot service)
# T2 sequence (P54762 18-984): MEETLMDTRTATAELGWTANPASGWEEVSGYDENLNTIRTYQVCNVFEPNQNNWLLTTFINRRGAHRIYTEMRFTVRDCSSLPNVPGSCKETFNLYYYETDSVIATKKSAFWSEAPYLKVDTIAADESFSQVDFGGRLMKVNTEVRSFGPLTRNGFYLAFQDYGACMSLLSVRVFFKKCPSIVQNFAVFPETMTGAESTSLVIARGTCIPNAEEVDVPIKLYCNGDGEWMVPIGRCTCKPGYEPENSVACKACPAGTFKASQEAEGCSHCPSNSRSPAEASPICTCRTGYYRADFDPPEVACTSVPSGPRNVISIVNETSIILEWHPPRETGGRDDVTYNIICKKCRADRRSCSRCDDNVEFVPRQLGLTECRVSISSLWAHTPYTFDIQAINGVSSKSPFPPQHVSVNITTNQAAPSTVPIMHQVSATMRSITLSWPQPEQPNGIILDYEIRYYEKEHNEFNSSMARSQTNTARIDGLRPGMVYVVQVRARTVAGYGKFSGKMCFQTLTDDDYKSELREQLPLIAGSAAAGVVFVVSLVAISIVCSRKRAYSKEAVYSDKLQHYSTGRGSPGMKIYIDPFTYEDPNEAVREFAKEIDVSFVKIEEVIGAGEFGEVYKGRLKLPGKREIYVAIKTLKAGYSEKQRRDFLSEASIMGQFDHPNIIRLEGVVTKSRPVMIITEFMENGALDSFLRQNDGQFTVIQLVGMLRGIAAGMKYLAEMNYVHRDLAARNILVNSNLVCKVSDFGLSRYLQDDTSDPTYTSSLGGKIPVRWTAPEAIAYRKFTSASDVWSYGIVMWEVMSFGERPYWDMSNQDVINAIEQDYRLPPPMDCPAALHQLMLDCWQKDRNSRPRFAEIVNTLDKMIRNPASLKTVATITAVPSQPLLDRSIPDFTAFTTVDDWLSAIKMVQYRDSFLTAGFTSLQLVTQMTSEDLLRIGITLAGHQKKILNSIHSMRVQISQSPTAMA
# Experimental: The HotSpot assay platform contains specific kinase/substrate pairs along with required cofactors. Base reaction buffer: 20 mM Hepes (pH 7.5), 10 mM MgCl2, 1 mM EGTA, 0.02% Brij35, 0.02 mg/mL BSA, 0.1 mM Na3VO4, 2 mM DTT, 1% DMSO. The tested compounds were dissolved in 100% DMSO to specific concentration. The serial dilution was conducted by Integra Viaflo Assist in DMSO (Sigma-Aldrich, Burlington, MA, USA). The reaction mixture containing the examined compound and 33P-ATP was incubated at room temperature for 2 h, and radioactivity was detected by filter-binding method. Kinase activity data were expressed as the percent remaining kinase activity in test samples compared to vehicle (dimethyl sulfoxide) reactions. IC50 values and curve fits were obtained using Prism (GraphPad Software, San Diego, CA, USA).
# T1 sequence (P00533 25-1210): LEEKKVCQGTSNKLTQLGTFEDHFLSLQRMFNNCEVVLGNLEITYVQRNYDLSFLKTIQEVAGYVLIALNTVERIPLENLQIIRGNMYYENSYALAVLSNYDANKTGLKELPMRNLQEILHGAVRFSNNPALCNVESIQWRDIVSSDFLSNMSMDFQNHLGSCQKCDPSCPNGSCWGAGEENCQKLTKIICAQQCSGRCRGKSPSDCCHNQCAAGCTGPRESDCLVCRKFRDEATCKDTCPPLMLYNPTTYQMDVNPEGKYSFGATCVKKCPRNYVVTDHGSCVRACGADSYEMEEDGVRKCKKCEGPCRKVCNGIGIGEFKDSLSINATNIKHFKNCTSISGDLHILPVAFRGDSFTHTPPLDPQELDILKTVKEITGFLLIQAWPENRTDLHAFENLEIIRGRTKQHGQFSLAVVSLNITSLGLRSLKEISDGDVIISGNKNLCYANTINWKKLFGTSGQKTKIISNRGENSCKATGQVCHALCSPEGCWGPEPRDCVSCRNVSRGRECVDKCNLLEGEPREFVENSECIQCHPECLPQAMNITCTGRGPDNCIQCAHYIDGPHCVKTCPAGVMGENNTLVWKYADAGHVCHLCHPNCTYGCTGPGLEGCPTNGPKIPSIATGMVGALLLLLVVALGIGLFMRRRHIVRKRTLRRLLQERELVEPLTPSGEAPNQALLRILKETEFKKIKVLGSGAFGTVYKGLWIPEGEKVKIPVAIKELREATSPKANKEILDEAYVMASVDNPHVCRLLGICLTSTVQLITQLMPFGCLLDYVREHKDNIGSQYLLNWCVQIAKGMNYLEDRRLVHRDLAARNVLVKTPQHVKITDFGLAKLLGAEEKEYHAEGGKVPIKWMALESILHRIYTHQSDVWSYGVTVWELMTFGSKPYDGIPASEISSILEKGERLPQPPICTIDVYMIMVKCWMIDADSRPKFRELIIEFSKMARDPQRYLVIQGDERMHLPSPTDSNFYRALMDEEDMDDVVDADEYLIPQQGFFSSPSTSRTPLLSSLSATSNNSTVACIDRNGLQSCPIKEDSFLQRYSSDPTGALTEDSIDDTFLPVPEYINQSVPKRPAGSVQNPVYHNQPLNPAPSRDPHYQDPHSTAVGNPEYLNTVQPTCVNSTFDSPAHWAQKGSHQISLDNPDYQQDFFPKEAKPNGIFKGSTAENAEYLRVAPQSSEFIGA
smiles,measurement,setting,value
"NS(=O)(=O)c1ccc(Nc2ncnc3ccc(-c4cccc(O)c4)cc23)cc1 [Compound 4c, 4-((6-(3-Hydroxyphenyl)quinazolin-4-yl)amino)benzenesulfonamide]",inhibition at 10 µM,"EGFR kinase; EGFR kinase, 10 µM compound, 10 µM ATP as printed, read-out: Average % Enzyme Inhibition (Relative to DMSO Controls) at 10 µM",46.8 ± 0.54%
same,IC50,"EGFR kinase; EGFR kinase, dose dependent assay, read-out: IC50",8.04 µM
same,IC50,"EGFR kinase; EGFR, read-out: EC50 of the curve fit printed in Figure 6 (IC50 per legend)",8.04 µM
same,inhibition at 10 µM,"EphB1; EphB1, 10 µM, read-out: Average % Enzyme Inhibition (Relative to DMSO Controls) at 10 µM",58.9 ± 1.98%
same,IC50,"EphB1; EphB1, dose-dependent assay",5.86 µM
